Measurements from patent US20260216216A1, “(N-ALKYLDIHYDROL-2H-OXAZINYL)-CANNABIDIOL AS ANTI-PROLIFERATIVE AGENT AND PROCESS FOR PREPARATION THEREOF” (COUNCIL OF SCIENTIFIC AND INDUSTRIAL RESEARCH, priority 2022, published 2026).
Where two headings read alike, the source gives them in different places.

Assays:
[1] = system: U251 (glioblastoma) cell line; experiment: SRB in-vitro cytotoxicity assay, U251; details: Homo sapiens
Method: (§1) All the ring annulated analogues of cannabinoid were evaluated for their cytotoxicity against number of human cancer cell lines. To evaluate the in-vitro cytotoxicity, a sulphorhodamine B (SRB) assay was carried out. SRB is a negatively charged pink aminoxanthine dye that binds to the basic amino acid of cells in mildly acidic conditions and is removed in basic conditions. […] When cells reached 60-70% confluency, trypsinized and seeded in 96 well plates according to their inoculation density and incubated for 24 hours to attain their proper morphology. Next-day cells were again incubated for 48 hours with test compounds or paclitaxel (positive control). Next, cells were fixed with 50% of ice-cold TCA for 1 hours, washed with distilled water, and kept for air drying. Air-dried plates were then stained with 0.4% SRB dye for 30 minutes and subsequently with water and 1% v/v glacial acetic acid were then kept for air drying. […] The viability of cells is measured based on bound dye after fixation, which is measured by absorbance at 540 nm.

[2] = system: A549 (lung cancer) cell line; experiment: SRB in-vitro cytotoxicity assay, A549; details: Homo sapiens
Method: as §1

[3] = system: HCT-116 (colorectal cancer) cell line; experiment: SRB in-vitro cytotoxicity assay, HCT-116; details: Homo sapiens
Method: as §1

[4] = system: PC-3 (prostate cancer) cell line; experiment: SRB in-vitro cytotoxicity assay, PC-3; details: Homo sapiens
Method: as §1

[5] = system: Mia-PaCa (pancreatic cancer) cell line; experiment: SRB in-vitro cytotoxicity assay, Mia-PaCa; details: Homo sapiens
Method: as §1

[6] = system: MCF-7 (breast cancer) cell line; experiment: SRB in-vitro cytotoxicity assay, MCF-7; details: Homo sapiens
Method: as §1

[7] = system: HEK-293 (normal cell lines); experiment: SRB in-vitro cytotoxicity assay, HEK-293; details: Homo sapiens, HEK293, read-out: inhibition against HEK-293 cell lines
Method: as §1

[8] = in vitro; details: human
Method: as §1

[9] = U-251, 48 h, read-out: Cytotoxicity (in vitro cell inhibition) U251
[10] = U-251, read-out: inhibition against U251 cell lines
[11] = A549, 48 h, read-out: Cytotoxicity (in vitro cell inhibition) A549
[12] = A549, read-out: inhibition against A549 cell lines
[13] = HCT-116, 48 h, read-out: Cytotoxicity (in vitro cell inhibition) HCT-116
[14] = HCT-116, read-out: inhibition against HCT-116 cell lines
[15] = 48 h, read-out: Cytotoxicity (in vitro cell inhibition) PC3
[16] = PC-3, read-out: inhibition against PC3 cell lines
[17] = MIA PaCa-2, 48 h, read-out: Cytotoxicity (in vitro cell inhibition) Mia-PaCa
[18] = MIA PaCa-2, read-out: inhibition against Mia-PaCa cell lines
[19] = MCF7, 48 h, read-out: Cytotoxicity (in vitro cell inhibition) MCF-7
[20] = MCF7, read-out: inhibition against MCF-7 cell lines

SMILES	inhibition at 20 µM [1, 9] [%]	inhibition at 20 µM [1, 10] [%]	inhibition at 20 µM [2, 11] [%]	inhibition at 20 µM [2, 12] [%]	inhibition at 20 µM [3, 13] [%]	inhibition at 20 µM [3, 14] [%]	inhibition at 20 µM [4, 15] [%]	inhibition at 20 µM [4, 16] [%]	inhibition at 20 µM [5, 17] [%]	inhibition at 20 µM [5, 18] [%]	inhibition at 20 µM [6, 19] [%]	inhibition at 20 µM [6, 20] [%]	inhibition at 20 µM [7] [%]	inhibition at 20 µM [8] [%]	inhibition at 48 h, 20 µM [8] [%]
C=C(C)[C@@H]1CCC(C)=C[C@H]1c1c(O)cc(CCCCC)c2c1OCN(C1CCC1)C2 [Ih, (N-cyclobutyldihydrol-2H-oxazinyl)-cannabidiol]	50 to 70	> 50	50 to 70	> 50	50 to 70	> 50	> 70	> 70	> 70	> 70	> 70	> 70	> 50	50 to 70	–
CC(=O)O[C@H]1C(=O)[C@@]2(C)[C@H]([C@H](OC(=O)c3ccccc3)[C@]3(O)C[C@H](OC(=O)[C@H](O)[C@@H](NC(=O)c4ccccc4)c4ccccc4)C(C)=C1C3(C)C)[C@]1(OC(C)=O)CO[C@@H]1C[C@@H]2O [Paclitaxel, paclitaxel, reference compound]	> 70	> 70	> 70	> 70	> 70	> 70	> 70	> 70	> 70	> 70	> 70	> 70	> 70	–	> 70
